Test results published in US20200331904A1, “3-AMINO-[1,2,4]-TRIAZOLE DERIVATIVES AND THEIR USE FOR CONTROLLING UNDESIRED PLANT GROWTH” (Bayer CropScience Aktiengesellschaft, priority 2017, published 2020).

Key:
Assay type in all cases: in vivo
Echinochloa crus-galli [1] = assay: Pre-emergence herbicidal efficacy, ECHCG; settings: Table B1, application rate 320 g/ha, scored visually after about 3 weeks vs untreated controls
How it was run: (§1)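 Seeds were sown in pots and covered with soil; WP or EC formulations were sprayed onto the soil surface as aqueous suspension or emulsion with 0.5% additive. Pots were kept in a greenhouse, and after about 3 weeks damage was rated visually as percent versus untreated controls (100% = plants dead, 0% = like control).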

Lolium rigidum [2] = assay: Pre-emergence herbicidal efficacy, LOLRI; settings: Table B1, application rate 320 g/ha, scored visually after about 3 weeks vs untreated controls
How it was run: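 Seeds sown in pots and covered with soil. Greenhouse-grown about 3 weeks, then visually scored as % activity vs untreated controls (100% = dead, 0% = like control).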

Setaria viridis [3] = assay: Pre-emergence herbicidal efficacy, SETVI; settings: Table B1, application rate 320 g/ha, scored visually after about 3 weeks vs untreated controls
How it was run: as §1

Abutilon theophrasti [4] = assay: Pre-emergence herbicidal efficacy, ABUTH; settings: Table B1, application rate 320 g/ha, scored visually after about 3 weeks vs untreated controls
How it was run: as §1

Amaranthus retroflexus [5] = assay: Pre-emergence herbicidal efficacy, AMARE; settings: Table B1, application rate 320 g/ha, scored visually after about 3 weeks vs untreated controls
How it was run: as §1

Matricaria inodora = assay: Pre-emergence herbicidal efficacy, MATIN; settings: Table B1, application rate 320 g/ha, scored visually after about 3 weeks vs untreated controls
How it was run: as §1

Polygonum convolvulus = assay: Pre-emergence herbicidal efficacy, POLCO; settings: Table B1, application rate 320 g/ha, scored visually after about 3 weeks vs untreated controls
How it was run: as §1

Stellaria media [6] = assay: Pre-emergence herbicidal efficacy, STEME; settings: Table B1, application rate 320 g/ha, scored visually after about 3 weeks vs untreated controls
How it was run: as §1

Viola tricolor [7] = assay: Pre-emergence herbicidal efficacy, VIOTR; settings: Table B1, application rate 320 g/ha, scored visually after about 3 weeks vs untreated controls
How it was run: as §1

Veronica persica [8] = assay: Pre-emergence herbicidal efficacy, VERPE; settings: Table B1, application rate 320 g/ha, scored visually after about 3 weeks vs untreated controls
How it was run: as §1

Setaria viridis [9] = assay: Post-emergence herbicidal efficacy, SETVI; settings: Table B6, one-leaf stage, application rate 320 g/ha, rated visually after about 3 weeks vs untreated controls
Excerpt: (§2) ABUTH: Abutilon theophrasti ALOMY: Alopecurus myosuroides AMARE: Amaranthus retroflexus AVEFA: Avena fatua CYPES: Cyperus esculentus ECHCG: Echinochloa crus-galli LOLMU: Lolium multiflorum MATIN: Matricaria inodora PHBPU: Ipomoea purpurea POLCO: Polygonum convolvulus SETVI: Setaria viridis STEME: Stellaria media VERPE: Veronica persica VTOTR: Viola tricolor
(§3) C.2 Post-Emergence Herbicidal Action and Crop Plant Compatibility
(§4) Seeds of monocotyledonous and dicotyledonous weeds and crop plants are placed in sandy loam in plastic or organic planting pots, covered with soil and cultivated in a greenhouse under controlled growth conditions. 2 to 3 weeks after sowing, the test plants are treated at the one-leaf stage. The compounds of the invention, formulated in the form of wettable powders (WP) or as emulsion concentrates (EC), are then sprayed onto the green parts of the plants as aqueous suspension or emulsion with addition of 0.5% additive at a water application rate of […] (converted). After the test plants had been kept in the greenhouse under optimum growth conditions for about 3 weeks, the activity of the preparations is rated visually in comparison to untreated controls. For example, 100% activity=the plants have died, 0% activity=like control plants.

Abutilon theophrasti [10] = assay: Post-emergence herbicidal efficacy, ABUTH; settings: Table B6, one-leaf stage, application rate 320 g/ha, rated visually after about 3 weeks vs untreated controls
Excerpt: as §2, §3, §4

Amaranthus retroflexus [11] = assay: Post-emergence herbicidal efficacy, AMARE; settings: application rate 320 g/ha
Excerpt: as §2, §3, §4

Veronica persica [12] = assay: Post-emergence herbicidal efficacy, VERPE; settings: application rate 320 g/ha
How it was run: (§5)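 Greenhouse plants in sandy loam were sprayed at the one-leaf stage, 2–3 weeks after sowing. After about 3 weeks, activity was rated visually against untreated controls, from 0% (like control) to 100% (plants dead).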

harmful plants [13] = assay: Pre-emergence herbicidal action; settings: applied pre-emergence
Excerpt: C.1 Pre-Emergence Herbicidal Action and Crop Plant Compatibility
Seeds of monocotyledonous and dicotyledonous weed plants and crop plants are placed in plastic or organic planting pots and covered with soil. The compounds of the invention, formulated in the form of wettable powders (WP) or as emulsion concentrates (EC), are then applied onto the surface of the covering soil as aqueous suspension or emulsion with addition of 0.5% additive at a water application rate of […] (converted). After the treatment, the pots are placed in a greenhouse and kept under good growth conditions for the trial plants. After about 3 weeks, the effect of the preparations is scored visually in comparison with untreated controls as percentages. For example, 100% activity=the plants have died, 0% activity=like control plants.

Echinochloa crus-galli [14] = assay: Post-emergence herbicidal efficacy, ECHCG; settings: application rate 320 g/ha, rated visually after about 3 weeks
Excerpt: as §2, §3, §4

Lolium rigidum [15] = assay: Post-emergence herbicidal efficacy, LOLRI; settings: application rate 320 g/ha, rated visually after about 3 weeks
Description: as §3, §4

Stellaria media [16] = assay: Post-emergence herbicidal efficacy, STEME; settings: application rate 320 g/ha, rated visually after about 3 weeks
Excerpt: as §2, §3, §4

Viola tricolor [17] = assay: Post-emergence herbicidal efficacy, VIOTR; settings: application rate 320 g/ha, rated visually after about 3 weeks (Table B5)
How it was run: as §5

harmful plants [18] = assay: Post-emergence herbicidal action; settings: applied post-emergence
Description: as §3, §4

[19] = Table B6, one-leaf stage, rated visually after about 3 weeks vs untreated controls

Row | Structure (SMILES) | Herbicidal efficacy against ECHCG (Echinochloa crus-galli [1]) [%] | Herbicidal efficacy against LOLRI (Lolium rigidum [2]) [%] | Herbicidal efficacy against SETVI (Setaria viridis [3]) [%] | Herbicidal efficacy against ABUTH (Abutilon theophrasti [4]) [%] | Herbicidal efficacy against AMARE (Amaranthus retroflexus [5]) [%] | Herbicidal efficacy against MATIN (Matricaria inodora) [%] | Herbicidal efficacy against POLCO (Polygonum convolvulus) [%] | Herbicidal efficacy against STEME (Stellaria media [6]) [%] | Herbicidal efficacy against VIOTR (Viola tricolor [7]) [%] | Herbicidal efficacy against VERPE (Veronica persica [8]) [%] | Herbicidal efficacy against SETVI (Setaria viridis [9]) [%] | Herbicidal efficacy against ABUTH (Abutilon theophrasti [10]) [%] | Herbicidal efficacy against AMARE (Amaranthus retroflexus [11]; [19]) [%] | Herbicidal efficacy against VERPE (Veronica persica [12]; [19]) [%] | herbicidal efficacy against harmful plants (harmful plants [13]) | also measured
1 | CC(=O)N1CCn2nc(N[C@@H]3CCCc4ccc(C)cc43)nc2C1 [Example I-180] | 100 | 100 | 100 | 100 | 100 | 100 | 100 | 100 | 100 | 100 | 80 | 80 | 80 | 80 |  | 
2 | Cc1ccc2c(c1)[C@H](Nc1nc3n(n1)CCN(S(=O)(=O)C(C)C)C3)CCC2 [Example I-199] | 100 | 100 | 100 | 100 | 100 | 100 | 100 | 100 | 100 | 100 |  |  |  |  | very good herbicidal efficacy | 
3 | Cc1ccc2c(c1)C(Nc1nc3n(n1)CCCCS3)CCC2 (centres unmarked) [Example I-214] | 100 | 100 | 100 | 100 | 100 | 100 | 100 | 100 | 100 | 100 | 100 | 80 | 80 | 100 |  | 
4 | Cc1ccc2c(c1)C(Nc1nc3n(n1)CCC(=O)N3C)CCC2 (centres unmarked) [Example I-231] | 100 | 100 | 100 | 100 | 100 | 100 | 100 | 100 | 100 | 100 |  |  |  |  | very good herbicidal efficacy | Herbicidal efficacy against ECHCG (Echinochloa crus-galli [14]): 100%; Herbicidal efficacy against LOLRI (Lolium rigidum [15]): 80%; Herbicidal efficacy against AMARE (Amaranthus retroflexus [11]; rated visually after about 3 weeks): 80%; Herbicidal efficacy against STEME (Stellaria media [16]): 80%; Herbicidal efficacy against VIOTR (Viola tricolor [17]): 90%; Herbicidal efficacy against VERPE (Veronica persica [12]; rated visually after about 3 weeks (Table B5)): 90%; herbicidal efficacy against harmful plants (harmful plants [18]): very good herbicidal efficacy
5 | Cc1ccc2c(c1)[C@H](Nc1nc3n(n1)CCCCS3)CCO2 [Example I-377] | 100 | 100 | 100 | 100 | 100 | 100 | 100 | 100 | 100 | 100 | 90 | 80 | 80 | 90 |  | 
